Test results from ChEMBL document CHEMBL3351728, “3-alkoxy-pyrrolo[1,2-b]pyrazolines as selective androgen receptor modulators with ideal physicochemical properties for transdermal administration” (J Med Chem, 2014).
≈ marks a conversion by molar mass, not a printed value. Calls of active or inactive are those of the source. The rule behind the calls is not given here.

What was measured:
[1] = biological target: T1, Androgen receptor (Homo sapiens) (UniProt P10275); test: Agonist activity at human androgen receptor expressed in mouse C2C12 cells by androgen-specific response element-driven luciferase reporter gene assay relative to DHT; format: cell-based
T1 sequence (whole entry): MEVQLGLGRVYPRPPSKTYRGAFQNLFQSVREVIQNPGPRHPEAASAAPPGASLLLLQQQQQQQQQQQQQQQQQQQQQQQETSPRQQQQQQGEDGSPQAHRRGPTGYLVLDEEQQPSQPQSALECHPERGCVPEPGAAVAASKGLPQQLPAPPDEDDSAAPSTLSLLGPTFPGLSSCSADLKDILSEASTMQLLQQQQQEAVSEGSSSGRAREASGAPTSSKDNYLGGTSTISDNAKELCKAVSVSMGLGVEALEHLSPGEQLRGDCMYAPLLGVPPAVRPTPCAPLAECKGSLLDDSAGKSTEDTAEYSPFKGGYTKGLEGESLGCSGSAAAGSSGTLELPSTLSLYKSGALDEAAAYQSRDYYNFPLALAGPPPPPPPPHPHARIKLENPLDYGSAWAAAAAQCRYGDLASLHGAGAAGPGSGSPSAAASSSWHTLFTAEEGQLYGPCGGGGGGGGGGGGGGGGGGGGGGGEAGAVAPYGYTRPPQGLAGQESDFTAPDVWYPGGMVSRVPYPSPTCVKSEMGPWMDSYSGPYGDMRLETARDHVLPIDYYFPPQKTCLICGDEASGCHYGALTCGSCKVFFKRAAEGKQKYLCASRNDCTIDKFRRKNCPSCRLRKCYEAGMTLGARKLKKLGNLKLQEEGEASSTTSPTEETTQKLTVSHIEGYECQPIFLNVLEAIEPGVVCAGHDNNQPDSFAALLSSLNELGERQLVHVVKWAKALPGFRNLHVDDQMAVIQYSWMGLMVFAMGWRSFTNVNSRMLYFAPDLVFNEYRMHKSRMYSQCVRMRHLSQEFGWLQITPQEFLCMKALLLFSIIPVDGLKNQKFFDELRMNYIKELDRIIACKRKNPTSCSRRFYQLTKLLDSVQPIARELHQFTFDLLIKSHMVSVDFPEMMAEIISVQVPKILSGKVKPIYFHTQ

[2] = biological target: T2, Androgen receptor (Homo sapiens, UniProt P10275)
T2 sequence (P10275 whole entry): T1 sequence (whole entry)

[3] = system: Zone of skin; test: Skin permeability in human cadaver skin in Franz diffusion cell system; format: ADME
[4] = Thermodynamic solubility of the compound at pH 7.4; format: physicochemical; conditions: buffer, read-out: Therm_solubility
[5] = Skin drug retention by silicone and isopropyl myristate (70:30) containing artificial membranes based skin PAMPA method
[6] = Skin permeability by silicone and isopropyl myristate (70:30) containing artificial membranes based skin PAMPA method; format: ADME
[7] = Lipophilicity, logP of the compound; format: physicochemical; conditions: octanol/water
[8] = biological target: T2, Androgen receptor; conditions: c2c12
[9] = Volume of distribution in Wistar rat at 1 mg/kg, iv; format: ADME, organism-based; set-up: dose 1 mg/kg, route intravenous; conditions: in vivo
[10] = system: Rattus norvegicus; test: Androgenic activity in orchidectomized rat assessed as stimulation of prostate weight treated subcutaneously once daily for 14 days by Hershberger assay; format: organism-based; conditions: Prostate gland, sc, 336 h
[11] = biological target: T3, Progesterone receptor (Homo sapiens, UniProt P06401); test: Binding affinity to progesterone receptor (unknown origin) incubated for 4 hrs
T3 sequence (P06401 whole entry): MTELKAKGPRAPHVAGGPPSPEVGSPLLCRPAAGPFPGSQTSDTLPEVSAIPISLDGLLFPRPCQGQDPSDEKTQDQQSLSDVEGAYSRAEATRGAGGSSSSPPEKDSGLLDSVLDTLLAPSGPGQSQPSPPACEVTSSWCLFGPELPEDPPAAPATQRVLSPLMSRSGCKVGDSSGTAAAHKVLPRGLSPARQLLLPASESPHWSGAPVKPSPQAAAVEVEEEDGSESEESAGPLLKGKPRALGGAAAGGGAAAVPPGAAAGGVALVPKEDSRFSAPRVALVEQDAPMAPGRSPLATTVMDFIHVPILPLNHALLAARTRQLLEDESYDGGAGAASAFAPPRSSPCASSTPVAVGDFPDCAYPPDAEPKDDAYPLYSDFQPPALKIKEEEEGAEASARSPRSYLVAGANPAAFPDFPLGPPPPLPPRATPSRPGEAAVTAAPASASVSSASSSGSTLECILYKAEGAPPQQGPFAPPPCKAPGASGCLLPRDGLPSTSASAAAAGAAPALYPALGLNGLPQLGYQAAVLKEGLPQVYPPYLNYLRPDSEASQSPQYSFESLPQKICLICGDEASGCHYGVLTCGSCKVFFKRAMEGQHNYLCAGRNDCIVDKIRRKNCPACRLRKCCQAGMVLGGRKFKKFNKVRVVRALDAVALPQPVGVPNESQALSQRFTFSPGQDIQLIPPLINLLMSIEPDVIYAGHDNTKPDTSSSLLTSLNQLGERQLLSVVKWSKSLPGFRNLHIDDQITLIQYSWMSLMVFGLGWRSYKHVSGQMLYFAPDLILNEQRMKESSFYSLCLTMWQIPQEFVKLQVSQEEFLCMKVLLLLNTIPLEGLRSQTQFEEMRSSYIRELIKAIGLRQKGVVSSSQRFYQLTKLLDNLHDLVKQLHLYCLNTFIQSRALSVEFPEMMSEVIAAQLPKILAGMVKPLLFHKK

[12] = Terminal half life in Wistar rat at 1 mg/kg, iv; format: ADME, organism-based; set-up: dose 1 mg/kg, route intravenous; conditions: in vivo, read-out: beta t1/2 (converted)
[13] = system: Rattus norvegicus; test: Androgenic activity in orchidectomized rat assessed as stimulation of prostate weight treated at 0.3 mg/kg, sc once daily for 14 days by Hershberger assay; format: organism-based, Prostate gland; set-up: dose 0.3 mg/kg, route subcutaneous; conditions: in vivo, 336 h
[14] = system: Rattus norvegicus; test: Anabolic activity in orchidectomized rat assessed as stimulation of bulbocavernosus/levator ani muscle weight treated at 0.3 mg/kg, sc once daily for 14 days by Hershberger assay; format: functional, organism-based; set-up: dose 0.3 mg/kg
[15] = biological target: T2, Androgen receptor; test: Displacement of [3H]DHT from androgen receptor in human MDA-MB-435 cells after 30 mins; format: cell-based
[16] = system: Rattus norvegicus; test: AUC (0 to 48 hrs) in Wistar rat at 0.5 mg/kg, sc; format: ADME, organism-based, Plasma; set-up: time < 48 hr, dose 0.5 mg/kg, route subcutaneous; conditions: in vivo
[17] = system: Rattus norvegicus; test: Anabolic activity in orchidectomized rat assessed as stimulation of bulbocavernosus/levator ani muscle weight treated subcutaneously once daily for 14 days by Hershberger assay; format: functional
[18] = AUC (0 to infinity) in Wistar rat at 1 mg/kg, iv; format: ADME, organism-based; set-up: dose 1 mg/kg, route intravenous, time infinity; conditions: plasma
[19] = biological target: T4, Glucocorticoid receptor (Homo sapiens, UniProt P04150); test: Binding affinity to glucocorticoid receptor (unknown origin) incubated for 4 hrs
T4 sequence (P04150 whole entry): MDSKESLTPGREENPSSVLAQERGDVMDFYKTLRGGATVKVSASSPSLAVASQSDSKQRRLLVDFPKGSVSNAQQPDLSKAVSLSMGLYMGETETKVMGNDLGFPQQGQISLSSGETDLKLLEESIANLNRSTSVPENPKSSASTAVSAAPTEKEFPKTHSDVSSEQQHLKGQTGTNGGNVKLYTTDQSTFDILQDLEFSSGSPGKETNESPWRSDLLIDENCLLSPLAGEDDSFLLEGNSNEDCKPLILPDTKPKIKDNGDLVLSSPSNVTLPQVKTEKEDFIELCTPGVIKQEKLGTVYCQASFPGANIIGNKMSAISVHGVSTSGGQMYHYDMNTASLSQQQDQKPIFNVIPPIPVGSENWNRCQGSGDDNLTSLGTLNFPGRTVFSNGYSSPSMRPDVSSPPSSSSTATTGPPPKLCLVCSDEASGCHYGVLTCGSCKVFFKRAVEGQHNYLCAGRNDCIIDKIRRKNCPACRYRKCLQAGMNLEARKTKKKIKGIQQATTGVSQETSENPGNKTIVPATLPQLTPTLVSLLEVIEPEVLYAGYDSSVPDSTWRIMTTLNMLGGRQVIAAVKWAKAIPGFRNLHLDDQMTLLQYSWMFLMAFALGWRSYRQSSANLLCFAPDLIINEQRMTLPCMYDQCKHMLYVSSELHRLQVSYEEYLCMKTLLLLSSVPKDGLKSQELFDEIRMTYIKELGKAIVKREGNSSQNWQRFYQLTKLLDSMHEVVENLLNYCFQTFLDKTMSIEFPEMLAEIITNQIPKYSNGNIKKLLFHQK

[20] = biological target: T5, Estrogen receptor (Homo sapiens, UniProt P03372); test: Binding affinity to estrogen receptor (unknown origin) incubated for 4 hrs
T5 sequence (P03372 whole entry): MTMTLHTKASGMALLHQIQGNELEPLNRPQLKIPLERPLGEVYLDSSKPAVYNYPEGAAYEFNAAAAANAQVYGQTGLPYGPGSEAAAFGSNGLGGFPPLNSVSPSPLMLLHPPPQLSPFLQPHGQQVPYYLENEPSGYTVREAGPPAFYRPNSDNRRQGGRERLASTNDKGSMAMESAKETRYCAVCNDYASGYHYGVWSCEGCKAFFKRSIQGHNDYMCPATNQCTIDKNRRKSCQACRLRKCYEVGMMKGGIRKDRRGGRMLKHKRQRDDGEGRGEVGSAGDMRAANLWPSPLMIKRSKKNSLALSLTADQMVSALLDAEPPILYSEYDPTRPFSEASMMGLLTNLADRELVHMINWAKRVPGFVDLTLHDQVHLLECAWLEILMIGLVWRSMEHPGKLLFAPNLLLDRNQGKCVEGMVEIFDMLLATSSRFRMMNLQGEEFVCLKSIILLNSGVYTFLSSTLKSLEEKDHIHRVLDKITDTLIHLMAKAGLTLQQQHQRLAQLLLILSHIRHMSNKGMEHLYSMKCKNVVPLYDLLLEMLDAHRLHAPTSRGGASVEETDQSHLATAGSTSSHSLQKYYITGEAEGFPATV

[21] = Tmax in Wistar rat at 0.5 mg/kg, sc; format: ADME, organism-based; set-up: dose 0.5 mg/kg, route subcutaneous; conditions: in vivo
[22] = system: Rattus norvegicus; test: Bioavailability in Wistar rat at 0.5 mg/kg, sc; format: ADME, organism-based; conditions: in vivo
[23] = Cmax in Wistar rat at 0.5 mg/kg, sc; format: ADME, organism-based; set-up: dose 0.5 mg/kg, route subcutaneous; conditions: in vivo

Cc1c(C2=NN3CC[C@H](O)[C@H]3[C@@H]2OC(C)C)ccc(C#N)c1Cl
Emax [1]: 102% | EC50 [2]: 4.5 nM

C[C@]12CC[C@H]3[C@@H](CCC4=CC(=O)CC[C@@]43C)[C@@H]1CC[C@@H]2O [TESTOSTERONE]
Jss [3]: 0.19 ug/cm2.hr | solubility thermodynamic [4]: 40 µg/mL (≈ 139 µM) | Drug uptake [5]: inactive | permeability [6]: permeable

CO[C@@H]1C(c2ccc(C#N)c(Cl)c2C)=NN2CC[C@@H](F)[C@@H]12
Jss [3]: 1.2 ug/cm2.hr | logP [7]: 2.7 | Emax [1]: 98% | solubility thermodynamic [4]: 10 µg/mL (≈ 32.5 µM) | Drug uptake [5]: inactive | permeability [6]: permeable | EC50 [2]: 0.16 nM

CO[C@@H]1C(c2ccc(C#N)c(Cl)c2C)=NN2C[C@@H](F)C[C@@H]12
Emax [1]: 86% | EC50 [2]: 1.4 nM

COCCO[C@@H]1C(c2ccc(C#N)c(Cl)c2C)=NN2CC[C@H](O)[C@@H]12
Jss [3]: 1.1 ug/cm2.hr | logP [7]: 2 | Emax [1]: 82% | solubility thermodynamic [4]: 2300 µg/mL (≈ 6570 µM)

CCO[C@@H]1C(c2ccc(C#N)c(Cl)c2C)=NN2CC[C@H](O)[C@@H]12
Jss [3]: 0.9 ug/cm2.hr | logP [7]: 2.4 | Emax [1]: 98.3% | solubility thermodynamic [4]: 250 µg/mL (≈ 782 µM) | Drug uptake [5]: inactive | permeability [6]: permeable | EC50 [2]: 1 nM

CO[C@@H]1C(c2ccc(C#N)c(Cl)c2C)=NN2C[C@@H](O)C[C@@H]12
Emax [1]: inactive | EC50 [8]: Not Active

CO[C@@H]1C(c2ccc(C#N)c(Cl)c2C)=NN2CC[C@H](O)[C@@H]12
Jss [3]: 2 ug/cm2.hr | Vd [9]: 4.6 L/kg | logP [7]: 2 | ED50 [10]: 2.73 mg/kg | IC50 [11]: 700 nM | half-life [12]: 5.7 h | Activity [13]: Non-toxic | Emax [1]: 97% | Activity [14]: Active | solubility thermodynamic [4]: 1300 µg/mL (≈ 4250 µM) | IC50 [15]: 0.7 nM | AUC [16]: 670 ng·h/mL | Drug uptake [5]: inactive | Activity [17]: Dose-dependent effect | ED50 ([17]; sc, 336 h): 0.07 mg/kg | permeability [6]: permeable | AUC(0-inf) [18]: 708 ng·h/mL | IC50 [19]: > 1000 nM | IC50 [20]: > 1000 nM | Tmax [21]: 1.5 h | F [22]: 75% | Cmax [23]: 79 ng/mL
